# Several values for one entry are separate records, joined by “and”; a condition that tells them apart may be missing. Equal values may be shown once.
# What was measured:
# inflamed rat paw model = experiment: inflamed rat paw model: pain threshold after local carrageenan (Randall and Selitto); assay type: in vivo; details: for antagonism of the anti-nociceptive effect of protein C: β-blocking agent given with protein C; for Pain threshold: 3 hrs after carrageenan, protein C 800 U/kg
# Source text: See, Kirchhoff et al., Neuroscience Lett. 111:206-210 (1990). Subcutaneous administration of carrageenan into the rat paw produces an inflammatory edema characterized by infiltration of neutrophils, plasma extravasation, release and synthesis of histamine, bradykinins and prostaglandin E2. Id. As such, the rat paw is a recognized model of the inflammatory process and may be utilized for studying the nociceptive effects attendant thereto. Id. Thus, the rat paw provides a recognized model for evaluating the anti-nociceptive effects of protein C and/or the activation peptide of protein C according to the present invention.
# The pain threshold was measured in a manner analogous to the method described by Randall and Selitto (Randall LO and Selitto JJ: A method for measurement of analgesic activity on inflamed tissue, Arch. Int. Pharmacodyn. 111, 409-419, 1957). To this end, a mercury manometer was connected to a 10 ml syringe whose plunger was equipped with a short bullet-shaped peg. Increasing pressure was applied to the rat's paw through this syringe (20 mmHg/s). The pain threshold was defined as the pressure in mmHg required to induce a flight (struggle) reaction.
# Female Sprague-Dawley rats weighing between 250 and 350 g were used. Inflammation was produced by the intraplanter (i.pl.) injection of 3 mg carrageenan (Sigma Chemical Co., Cat. No., C-1013) suspended in 100 μl isotonic saline solution (0.9%) into the rat's paw.
# The pain threshold was measured before (control value) and every hour up to six hours after the injection of carrageenan. The pain threshold measured after carrageenan injection was expressed in percent of the control value.
# Unless otherwise specified, protein C was intravenously injected into a vein of the tail immediately upon the carrageenan injection. The injection volume was 2 ml/kg.
# A dose response curve for protein C administered i.v. and protein C (i.v.) immediately followed by a solution of 1 mg/kg antibody HPC-4 (i.v.) was determined. The experiments were carried out essentially as set forth in Example 4.
# The anti-nociceptive effects of the activation peptide of protein C (SEQ. ID. NO. 1) prepared as described in Example 7 were determined essentially as described in Examples 4 and 6. In the test animals, the […], each, in a constant injection volume of 2 ml/kg, simultaneously with intraplantar (i.pl.) administration of carrageenan into the rat's paw to induce an inflammatory response and pain. In a second set of test animals, antibody HPC-4 (1 mg/kg) was administered i.v. immediately following i.v. administration of the peptide (SEQ. ID. NO. 1). The anti-nociceptive effects of the peptide (SEQ. ID. NO. 1) administration and antagonism thereof by antibody HPC-4 as measured 6 hours later are shown in FIG. 3.
# [1] = tested on: thrombus formation on prosthetic vascular grafts; details: infusion; Gruber et al. 1989; cited from earlier work
# endotoxin shock = details: Taylor et al. 1987; cited from earlier work
# coronary blood flow = details: intracoronary administration; cited from earlier work
# [2] = tested on: thrombin-induced enhanced vascular permeability; experiment: thrombin-induced enhanced vascular permeability (Evan's Blue wheals); assay type: in vivo, guinea pigs
# Experimental: (§1) The effect of protein C on capillary leakage in guinea pigs was studied in order to confirm the efficacy of protein C in antagonizing enhanced vessel permeability in anesthetized guinea pigs. The study was carried out as follows:
# (§2) After intravenous administration of Evan's Blue, anesthetized guinea pigs received either a protein C concentrate or a formulation buffer. Thereafter, the test animals were treated with histamine or thrombin intracutaneously to induce enhanced vessel permeability, or with saline as a control. The animals were then examined visually for the occurrence of discoloration of the resulting wheals. The results are depicted in FIG. 4 (histamine treatment, protein C or saline), FIG. 5 (thrombin treatment, protein C or saline) and FIG. 6 (thrombin treatment, buffer or saline).
# (§3) In these studies, a colorless wheal was recorded as a negative observation (i.e., no disturbance in permeability), whereas a blue skin coloration at the injection site was defined as a positive observation (i.e. increased vessel permeability). The percentage of positive wheals among total wheals produced by the same substance and does within each group of treated animals (n=12 per treatment group) was calculated. […]
# perivascular leukocytes = experiment: histological examination of the rat paws; assay type: in vivo; details: rat paws after protein C, compared to untreated animals
# Source text: Thus, protein C appears to have an effect on vessel permeability, which allows the migration of leukocytes through the blood vessel into the perivascular region.
# [3] = protein C activity, aminolytic assay after activation by Protac; assay type: biochemical; details: finished lyophilized preparation; 1 unit = protein C activity in 1 ml normal plasma
# Experimental: The prothrombin complex concentrate was dissolved in the absorption buffer of Example 1, with about 10 g of the prothrombin complex concentrate being employed for a 20 ml monoclonal antibody column. Subsequently, the dissolved prothrombin complex concentrate was filtered, centrifuged at 20,000 r.p.m. for 15 min. and sterilely filtered through a 0.8 μm filter. The sterilely filtered and dissolved prothrombin complex concentrate was applied to the column at a flow rate of 10 ml/h. Subsequently, the column was washed free of protein with the washing buffer of Example 1, the bound protein C was eluted by means of the elution buffer of Example 1 at a flow rate of 5 ml/h and the fractions containing eluted protein C were collected and pooled. The eluted protein C was dialyzed against a buffer (0.2 mol/1 Tris, 0.15 mol glycine and 1 mmol EDTA, pH 8.3). Protein C antigen concentration was determined using the method described by Laurell, and protein C activity was determined using Protac activation.
# The lyophilized, virus inactivated material was then dissolved in a sterile isotonic NaCl solution and any antibodies or serum amyloid P potentially present in the preparation were eliminated by means of ion exchange chromatography on a Q-Sepharose column. […] Neither murine immunoglobulin nor Factors II, VII, IX and X could be detected. […]
# [4] = tested on: histamine-induced enhanced vascular permeability; experiment: histamine-induced enhanced vascular permeability (Evan's Blue wheals); assay type: in vivo, guinea pigs
# Experimental: as §1, §2, §3
molecule,measurement,setting,value
"CC(Cc1ccc(O)cc1)NCC(O)c1cc(O)cc(O)c1 (centres unmarked) [fenoterol, reference compound]",anti-nociceptive effect,"inflamed rat paw model; i.v., either 5 mg/kg at the beginning of the assay or 3 mg/kg at the 3 hr time point",marked anti-nociceptive effect
"CC(C)NCC(O)COc1cccc2[nH]ccc12 (centres unmarked) [pindolol, reference compound]",antagonism of the effect of protein C in sympathectomized animals,inflamed rat paw model; reserpine and alpha-methyl-p-tyrosine treated,completely antagonizes the effect of protein C
same,antagonism of the anti-nociceptive effect of protein C,inflamed rat paw model,antagonize the effect of protein C in a dose-dependent manner
"CC(C)NCC(O)COc1cccc2ccccc12 (centres unmarked) [propranolol, reference compound]",antagonism of the anti-nociceptive effect of protein C,inflamed rat paw model,antagonizes the anti-nociceptive effect of protein C
NH2 -Asp-Thr-Glu-Asp-Gln-Glu-Asp-Gln-Val-Asp-Pro-Arg-COOH (H-DTEDQEDQVDPR-OH) [activation peptide of protein C],anti-nociceptive effect,"inflamed rat paw model; peptide i.v. 3.125 to 100 μg/kg, measured 6 hours later, FIG. 3",has an anti-nociceptive effect
activated protein C,thrombotic occlusion,[1],Thrombotic occlusion was prevented
same,protection against coagulopathic and lethal effects of endotoxin shock,endotoxin shock,protect animals against the coagulopathic and lethal effects of endotoxin shock
same,coronary blood flow,coronary blood flow,increase in coronary blood flow
"protein C: Highly purified human protein C zymogen from prothrombin complex concentrate, purified by monoclonal antibody affinity chromatography, virus inactivated",shift of the thrombin dose-response curve to the right (factor),"[2]; 800 IU protein C/Kg i.v., % positive wheals, FIG. 5",9
same,effect on thrombin-increased endothelial permeability,[2]; pretreatment with protein C,effective in preventing the effects of both histamine and thrombin on increased endothelial permeability
same,Pain threshold,inflamed rat paw model; % of the pain threshold (control value),65 ± 2.0% and 60 ± 6%
same,Pain threshold,inflamed rat paw model; animals treated with reserpine and alpha-methyl-p-tyrosine,106.7 ± 18.1%
same,anti-nociceptive effect,"inflamed rat paw model; protein C i.v. immediately upon carrageenan, 8 to 800 U/kg, FIG. 1","significant, dose-dependent anti-nociceptive effect"
same,"signs of inflammation, such as oedema","inflamed rat paw model; protein C intravenously, carrageenan intraplantar","signs of inflammation, such as oedema, were reduced"
same,anti-nociceptive effect after chemical sympathectomy,inflamed rat paw model; reserpine 7.5 mg/kg i.p. and alpha-methyl-p-tyrosine 250 mg/kg i.p.,still acts as a highly effective anti-nociceptive
same,anti-nociceptive effect,inflamed rat paw model; subcutaneous administration,also detectable with subcutaneous administration
same,number of perivascular leukocytes,perivascular leukocytes,reduced number of perivascular leukocytes compared to the untreated animals
same,specific activity,[3],14 units protein C per mg
same,shift of the histamine dose-response curve to the right (factor),"[4]; 800 IU protein C/Kg i.v., % positive wheals, FIG. 4",4
same,effect on histamine-increased endothelial permeability,[4]; pretreatment with protein C,effective in preventing the effects of both histamine and thrombin on increased endothelial permeability

# — US5571786A, “Use of protein C or the activation peptide of protein C for preparing a pharmaceutical preparation” (Immuno Aktiengesellschaft, priority 1990, dated 1996)
